Test results: PubChem BioAssay (NCI)
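Interpolation was linear, between the two tested concentrations surrounding the appropriate level; five concentrations were tested over 48 hours in 96-well plates. GI50 is the concentration that inhibits growth by half. The concentration for full growth arrest is given as TGI.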

Assays:
Assay in all cases: NCI anticancer screen, dose series, 48 h
KM12 colon = system: KM12 colon
HCT-116 colon = system: HCT-116 colon
OVCAR-3 ovarian = system: OVCAR-3 ovarian
BT-549 breast = system: BT-549 breast
NCI/ADR-RES ovarian = system: NCI/ADR-RES ovarian
DU-145 prostate = system: DU-145 prostate
ACHN renal = system: ACHN renal
MOLT-4 leukemia = system: MOLT-4 leukemia
SR leukemia = system: SR leukemia
NCI-H23 lung = system: NCI-H23 lung

SMILES	GI50 (KM12 colon) [µM]	TGI (KM12 colon) [µM]	GI50 (HCT-116 colon) [µM]	TGI (HCT-116 colon) [µM]	GI50 (OVCAR-3 ovarian) [µM]	TGI (OVCAR-3 ovarian) [µM]	GI50 (BT-549 breast) [µM]	TGI (BT-549 breast) [µM]	GI50 (NCI/ADR-RES ovarian) [µM]	TGI (NCI/ADR-RES ovarian) [µM]	GI50 (DU-145 prostate) [µM]	TGI (DU-145 prostate) [µM]	GI50 (ACHN renal) [µM]	TGI (ACHN renal) [µM]	GI50 (MOLT-4 leukemia) [µM]	TGI (MOLT-4 leukemia) [µM]	GI50 (SR leukemia) [µM]	TGI (SR leukemia) [µM]	GI50 (NCI-H23 lung) [µM]	TGI (NCI-H23 lung) [µM]
O=C1C=CC(=Nc2cc(Br)c(O)c(Br)c2)C=C1	16.9	42.5	11.5	26.3	19.7	> 100	16.4	74.8	47.2	> 100	30	> 100	18.9	46.3	8.71	> 100	2.13	> 100	16	38.3
CC1CCCC(C(O)CC2CC(=O)NC(=O)C2)C1O (stereo not given)	–	> 100	–	> 100	–	> 100	–	> 100	–	> 100	–	> 100	–	> 100	–	> 100	–	> 100	–	> 100
O=C(COc1cc(O)c2c(=O)cc(-c3ccccc3)oc2c1)Nc1ccccc1C(F)(F)F	8.17	> 100	1.83	4.06	2.12	4.12	5.19	38.9	3.45	22.5	7.97	> 100	2.91	9.63	5.46	> 100	4.44	> 100	3.07	11.6
NCCOCCOCCNc1nc(-c2ccccc2)nc(N2CCN(c3ccccn3)CC2)n1	16.1	31	10	22.6	16.6	30.4	11.6	24	16	32.4	15.2	28.7	14.5	27.9	12.8	29.4	1.62	4.64	16.6	31.3
Cc1cc(N2CCOCC2)nc(N[C@@H]2CCC[C@H](Nc3ccnc4cc(Cl)ccc34)C2)n1	3.06	10.8	1.98	4.26	2.83	8.62	2.34	5.01	2.59	8	3.82	14.7	1.89	3.91	2.28	7.19	1.05	3.83	5.97	21.2
COc1cc(C2SCC(=O)N2c2ncc(C)s2)cc(OC)c1OC (stereo not given)	18.7	> 50	27.5	> 50	14.3	44.8	37.5	> 50	29	> 50	19.6	> 50	30.8	> 50	22.5	> 50	3.06	> 50	30.6	> 50
Oc1ccc(-c2nc3ccccc3s2)cc1CN(Cc1ccccn1)Cc1ccccn1	0.909	15.6	0.59	14	2.73	18.1	1.83	15.6	0.359	4.22	1.26	20.8	0.0991	3.91	1.42	13.9	2.14	> 100	2.64	24.3
Clc1ccc(-c2c3c(nn2-c2ccccn2)CCc2ccccc2-3)cc1Cl	> 100	> 100	76.1	> 100	> 100	> 100	> 100	> 100	> 100	> 100	> 100	> 100	74	> 100	> 100	> 100	78.1	> 100	> 100	> 100
CN(C)CCNC(=O)c1cccc(N(C)C(=O)c2ccccc2)c1[N+](=O)[O-]	–	> 100	–	> 100	–	> 100	–	> 100	–	> 100	–	> 100	–	> 100	–	> 100	–	> 100	–	> 100
O=c1cc(-c2cccc3c2Sc2ccccc2S3)oc(N2CCOCC2)c1	8.04	21.4	9.55	22.6	10.1	21.9	4.25	17	12.8	42.9	8.19	20.5	11.4	26.5	7.34	25.5	4.21	27.3	15.5	36.9
COc1cccc(NC(=O)c2sc3nc(C)c(C(O)c4ccccc4)cc3c2N)c1 (stereo not given)	0.337	11.8	0.241	12	0.255	2.93	0.335	19.5	0.245	0.941	0.382	19.6	0.601	18.2	0.378	19.5	0.0503	22.1	0.401	15.8
CN(Cc1ccccc1)c1ccc(CO)c(Cl)c1	22.6	> 86.5	0.533	15.1	3.36	12.9	21.1	> 100	18.9	72.6	27.8	> 100	57.2	> 100	26.4	> 82.6	19	> 86.6	17.9	> 100
Cc1csc(/C=C/C(=O)c2nnn(-c3ccnc4c(C(F)(F)F)cccc34)c2C)c1	52.7	> 100	39.9	> 100	> 100	> 100	> 100	> 100	47.7	> 100	> 100	> 100	> 100	> 100	22.2	66.9	23	> 100	48.9	> 100
